According to patent US20050208496A1, “Methods of testing for bronchial asthma or chronic obstructive pulmonary disease” (Genox Research, Inc., priority 2002, published 2005):
Read-outs that look alike come from different tables or passages of the source.

Tested on: respiratory epithelial cells

IL-13: human IL-13 (Peprotech, Inc.) added to the medium at 50 ng/mL to stimulate respiratory epithelial cells
pendrin gene expression level, factor of increase in response to IL-13 stimulation (AI method, day 3 and day 7, both Lots 1 and 2): ten or more
AKR1C1 (32805_at) expression change upon IL-13 stimulation (HG-U95A, lot 1, Day 3, AI): −2.7
ALDH3B2 (37956_at) expression change upon IL-13 stimulation (HG-U95A, lot 1, Day 3, AI): −7.4
AP1G1 (35275_at) expression change upon IL-13 stimulation (HG-U95A, lot 1, Day 3, AI): −3.6
CA12 (36454_at) expression change upon IL-13 stimulation (HG-U95A, lot 1, Day 3, AI): −4
CHL1 (34193_at) expression change upon IL-13 stimulation (HG-U95A, lot 1, Day 3, AI): −2.5
CMAH (39317_at) expression change upon IL-13 stimulation (HG-U95A, lot 1, Day 3, AI): −2.2
E48 (36284_at) expression change upon IL-13 stimulation (HG-U95A, lot 1, Day 3, AI): −10.3
EPHX1 (38790_at) expression change upon IL-13 stimulation (HG-U95A, lot 1, Day 3, AI): −3
FMO2.3 (34935_at) expression change upon IL-13 stimulation (HG-U95A, lot 1, Day 3, AI): −2.2
GLUL (40522_at) expression change upon IL-13 stimulation (HG-U95A, lot 1, Day 3, AI): −3.8
GSTA4 (40508_at) expression change upon IL-13 stimulation (HG-U95A, lot 1, Day 3, AI): −8
HGNC, keratinocyte transglutaminase gene (35947_at) expression change upon IL-13 stimulation (HG-U95A, lot 1, Day 3, AI): −2
KIAA0843 (39597_at) expression change upon IL-13 stimulation (HG-U95A, lot 1, Day 3, AI): −2.2
LGALS1 (33412_at) expression change upon IL-13 stimulation (HG-U95A, lot 1, Day 3, AI): −2
PYGL (37215_at) expression change upon IL-13 stimulation (HG-U95A, lot 1, Day 3, AI): −2.2
SCYD1 (823_at) expression change upon IL-13 stimulation (HG-U95A, lot 1, Day 3, AI): −2.2
SDC1 (38127_at) expression change upon IL-13 stimulation (HG-U95A, lot 1, Day 3, AI): −2.2
TGFBI (1385_at) expression change upon IL-13 stimulation (HG-U95A, lot 1, Day 3, AI): −3.8
ADH1A (34637_f_at) expression change upon IL-13 stimulation (HG-U95A, lot 1, Day 3, IMM): −3
AP1G1 (35275_at) expression change upon IL-13 stimulation (HG-U95A, lot 1, Day 3, IMM): −2.8
CA12 (36454_at) expression change upon IL-13 stimulation (HG-U95A, lot 1, Day 3, IMM): −3.5
CLDN10 (39579_at) expression change upon IL-13 stimulation (HG-U95A, lot 1, Day 3, IMM): −2.3
GLUL (40522_at) expression change upon IL-13 stimulation (HG-U95A, lot 1, Day 3, IMM): −2.9
GPX3 (770_at) expression change upon IL-13 stimulation (HG-U95A, lot 1, Day 3, IMM): −3.2
KIAA0843 (39597_at) expression change upon IL-13 stimulation (HG-U95A, lot 1, Day 3, IMM): −2.3
TGFBI (1385_at) expression change upon IL-13 stimulation (HG-U95A, lot 1, Day 3, IMM): −2.2
ADH1A (34637_f_at) expression change upon IL-13 stimulation (HG-U95A, lot 1, Day 7, AI): −6.1
ADH1C (36247_f_at) expression change upon IL-13 stimulation (HG-U95A, lot 1, Day 7, AI): −4.1
AKR1C1 (32805_at) expression change upon IL-13 stimulation (HG-U95A, lot 1, Day 7, AI): −3.2
ALDH3B2 (37956_at) expression change upon IL-13 stimulation (HG-U95A, lot 1, Day 7, AI): −6.8
AP1G1 (35275_at) expression change upon IL-13 stimulation (HG-U95A, lot 1, Day 7, AI): −3.9
ATP10B (37415_at) expression change upon IL-13 stimulation (HG-U95A, lot 1, Day 7, AI): −3.2
BLMH (37700_at) expression change upon IL-13 stimulation (HG-U95A, lot 1, Day 7, AI): −2.1
CA12 (36454_at) expression change upon IL-13 stimulation (HG-U95A, lot 1, Day 7, AI): −6.3
CLDN10 (39579_at) expression change upon IL-13 stimulation (HG-U95A, lot 1, Day 7, AI): −4.6
CMAH (39317_at) expression change upon IL-13 stimulation (HG-U95A, lot 1, Day 7, AI): −4.4
CP (39008_at) expression change upon IL-13 stimulation (HG-U95A, lot 1, Day 7, AI): −3.6
CRYM (38285_at) expression change upon IL-13 stimulation (HG-U95A, lot 1, Day 7, AI): −4.2
CSPG2 (38112_g_at) expression change upon IL-13 stimulation (HG-U95A, lot 1, Day 7, AI): −2.1
DHCR24 (36658_at) expression change upon IL-13 stimulation (HG-U95A, lot 1, Day 7, AI): −2.3
DSG3 (33693_at) expression change upon IL-13 stimulation (HG-U95A, lot 1, Day 7, AI): −3.6
E48 (36284_at) expression change upon IL-13 stimulation (HG-U95A, lot 1, Day 7, AI): −7.2
EPHX1 (38790_at) expression change upon IL-13 stimulation (HG-U95A, lot 1, Day 7, AI): −3
FACL2 (40082_at) expression change upon IL-13 stimulation (HG-U95A, lot 1, Day 7, AI): −2.7
FMO3 (40665_at) expression change upon IL-13 stimulation (HG-U95A, lot 1, Day 7, AI): −2.1
GLUL (40522_at) expression change upon IL-13 stimulation (HG-U95A, lot 1, Day 7, AI): −3
GPX3 (770_at) expression change upon IL-13 stimulation (HG-U95A, lot 1, Day 7, AI): −6.5
GSTA4 (40508_at) expression change upon IL-13 stimulation (HG-U95A, lot 1, Day 7, AI): −3.8
HGNC, keratinocyte transglutaminase gene (35947_at) expression change upon IL-13 stimulation (HG-U95A, lot 1, Day 7, AI): −3.2
KIAA0843 (39597_at) expression change upon IL-13 stimulation (HG-U95A, lot 1, Day 7, AI): −2.6
KIAA0878 (32215_1_at) expression change upon IL-13 stimulation (HG-U95A, lot 1, Day 7, AI): −3.4
KIAA1055 (39400_at) expression change upon IL-13 stimulation (HG-U95A, lot 1, Day 7, AI): −5.3
LCE (40943_at) expression change upon IL-13 stimulation (HG-U95A, lot 1, Day 7, AI): −2
LGALS1 (33412_at) expression change upon IL-13 stimulation (HG-U95A, lot 1, Day 7, AI): −6.8
PYGL (37215_at) expression change upon IL-13 stimulation (HG-U95A, lot 1, Day 7, AI): −3.2
SCYD1 (823_at) expression change upon IL-13 stimulation (HG-U95A, lot 1, Day 7, AI): −8.5
TGFBI (1385_at) expression change upon IL-13 stimulation (HG-U95A, lot 1, Day 7, AI): −5.3
TNFAIP2 (38631_at) expression change upon IL-13 stimulation (HG-U95A, lot 1, Day 7, AI): −4.4
AKR1C1 (32805_at) expression change upon IL-13 stimulation (HG-U95A, lot 1, Day 7, IMM): −3.1
AP1G1 (35275_at) expression change upon IL-13 stimulation (HG-U95A, lot 1, Day 7, IMM): −3.7
CA12 (36454_at) expression change upon IL-13 stimulation (HG-U95A, lot 1, Day 7, IMM): −4
CHL1 (34193_at) expression change upon IL-13 stimulation (HG-U95A, lot 1, Day 7, IMM): 2.1
CP (39008_at) expression change upon IL-13 stimulation (HG-U95A, lot 1, Day 7, IMM): −2.6
FMO2.3 (34935_at) expression change upon IL-13 stimulation (HG-U95A, lot 1, Day 7, IMM): −2.4
GPX3 (770_at) expression change upon IL-13 stimulation (HG-U95A, lot 1, Day 7, IMM): −6
HGNC, keratinocyte transglutaminase gene (35947_at) expression change upon IL-13 stimulation (HG-U95A, lot 1, Day 7, IMM): −3.7
KIAA0878 (32215_1_at) expression change upon IL-13 stimulation (HG-U95A, lot 1, Day 7, IMM): −2.3
PYGL (37215_at) expression change upon IL-13 stimulation (HG-U95A, lot 1, Day 7, IMM): −2.7
TGFBI (1385_at) expression change upon IL-13 stimulation (HG-U95A, lot 1, Day 7, IMM): −3
ADH1C (36247_f_at) expression change upon IL-13 stimulation (HG-U95A, lot 2, Day 3, AI): −6.1
AKR1C1 (32805_at) expression change upon IL-13 stimulation (HG-U95A, lot 2, Day 3, AI): −2.4
ALDH3B2 (37956_at) expression change upon IL-13 stimulation (HG-U95A, lot 2, Day 3, AI): −6.9
AP1G1 (35275_at) expression change upon IL-13 stimulation (HG-U95A, lot 2, Day 3, AI): −2.8
CA12 (36454_at) expression change upon IL-13 stimulation (HG-U95A, lot 2, Day 3, AI): −6.5
CHL1 (34193_at) expression change upon IL-13 stimulation (HG-U95A, lot 2, Day 3, AI): −4.3
CLDN10 (39579_at) expression change upon IL-13 stimulation (HG-U95A, lot 2, Day 3, AI): −5.4
CMAH (39317_at) expression change upon IL-13 stimulation (HG-U95A, lot 2, Day 3, AI): −7.4
CP (39008_at) expression change upon IL-13 stimulation (HG-U95A, lot 2, Day 3, AI): −3.9
DHCR24 (36658_at) expression change upon IL-13 stimulation (HG-U95A, lot 2, Day 3, AI): −2.1
E48 (36284_at) expression change upon IL-13 stimulation (HG-U95A, lot 2, Day 3, AI): −3.8
EPHX1 (38790_at) expression change upon IL-13 stimulation (HG-U95A, lot 2, Day 3, AI): −3
FMO2.3 (34935_at) expression change upon IL-13 stimulation (HG-U95A, lot 2, Day 3, AI): −3.7
FMO3 (40665_at) expression change upon IL-13 stimulation (HG-U95A, lot 2, Day 3, AI): −2.3
GLUL (40522_at) expression change upon IL-13 stimulation (HG-U95A, lot 2, Day 3, AI): −3.5
GPX3 (770_at) expression change upon IL-13 stimulation (HG-U95A, lot 2, Day 3, AI): −12.2
GSTA4 (40508_at) expression change upon IL-13 stimulation (HG-U95A, lot 2, Day 3, AI): −2.8
HGNC, keratinocyte transglutaminase gene (35947_at) expression change upon IL-13 stimulation (HG-U95A, lot 2, Day 3, AI): −2.7
KIAA0843 (39597_at) expression change upon IL-13 stimulation (HG-U95A, lot 2, Day 3, AI): −2.1
KIAA0878 (32215_1_at) expression change upon IL-13 stimulation (HG-U95A, lot 2, Day 3, AI): −2.4
LGALS1 (33412_at) expression change upon IL-13 stimulation (HG-U95A, lot 2, Day 3, AI): −2.6
PYGL (37215_at) expression change upon IL-13 stimulation (HG-U95A, lot 2, Day 3, AI): −2.2
SCYD1 (823_at) expression change upon IL-13 stimulation (HG-U95A, lot 2, Day 3, AI): −2.1
TGFBI (1385_at) expression change upon IL-13 stimulation (HG-U95A, lot 2, Day 3, AI): −3.1
TNFAIP2 (38631_at) expression change upon IL-13 stimulation (HG-U95A, lot 2, Day 3, AI): −2.4
ADH1A (34637_f_at) expression change upon IL-13 stimulation (HG-U95A, lot 2, Day 7, AI): −20.5
ADH1C (36247_f_at) expression change upon IL-13 stimulation (HG-U95A, lot 2, Day 7, AI): −14.2
ALDH3B2 (37956_at) expression change upon IL-13 stimulation (HG-U95A, lot 2, Day 7, AI): −27.6
AP1G1 (35275_at) expression change upon IL-13 stimulation (HG-U95A, lot 2, Day 7, AI): −2.6
ATP10B (37415_at) expression change upon IL-13 stimulation (HG-U95A, lot 2, Day 7, AI): −3
BLMH (37700_at) expression change upon IL-13 stimulation (HG-U95A, lot 2, Day 7, AI): −2.5
CA12 (36454_at) expression change upon IL-13 stimulation (HG-U95A, lot 2, Day 7, AI): −3
CHL1 (34193_at) expression change upon IL-13 stimulation (HG-U95A, lot 2, Day 7, AI): −7.3
CLDN10 (39579_at) expression change upon IL-13 stimulation (HG-U95A, lot 2, Day 7, AI): −5.4
CMAH (39317_at) expression change upon IL-13 stimulation (HG-U95A, lot 2, Day 7, AI): −14.4
CP (39008_at) expression change upon IL-13 stimulation (HG-U95A, lot 2, Day 7, AI): −6.2
